Results on eight compounds are retold here after patent US6355669B1, “Retinoic acid agonists as preventive and therapeutic agents for nephritis” (Eisai Co., Ltd., priority 1997, dated 2002).

Experiment [1] concerns mouse allergic cerebrospinal meningitis. The following applies: Racke et al., J. Immunol., 154, 450-458, 1995; cited from earlier work.
The subject of experiment [2] is rat adjuvant arthritis. The following applies: Brinckerhoff et al., Science 221, 756, 1983; cited from earlier work.
Experiment [3] deals with mouse B lymphocytes. The following applies: literature reports (Apfel 1992; Blomhoff 1992; Fahlman 1995); cited from earlier work.
Experiment [4] has as its system BALB/c mouse spleen cells. Put plainly: In vitro production of antibody (total IgG) in LPS-stimulated mouse spleen cells. It is filed as cell-based. The following applies: for Total IgG: LPS 5 μg/ml, 5 days. As for the experimental part: Spleen cells from 7-week-old female BALB/c mouse were cultured at 37° C. in the presence of 5% CO2 for 5 days along with 5 μg/ml lipopolysaccharide (LPS) in RPMI 1640 medium containing 10% fetal bovine serum. After culture, the total amount of IgG in the supernatant was quantified by specific ELISA techniques.

Experiment [5] has as its system human B lymphocytes. The following applies: literature reports (Apfel 1992; Blomhoff 1992; Fahlman 1995); cited from earlier work.
Experiment [6] relates to anti-collagen antibody titer. The following applies: rat model with collagen arthritis; Kuwabara et al., FEBS Letters 1996; cited from earlier work.
Experiment [7] relates to anti-ss DNA antibody. Nature of the experiment: Mouse model with spontaneous onset of SLE: production of anti-ss DNA antibody. The class given is in vivo, female (NZB×NZW) F1 mice. The following applies: for inhibition of production of anti-ss DNA antibody (in words): 0.03 mg/kg oral, after 16 weeks of administration. As to the method: (§1) In this experiment, female (NZB×NZW) F1 mice were used. Administration of each test compound was initiated at the age of 16 weeks, and blood was collected at predetermined intervals from the orbital venous plexus of the animals under anesthesia with ether and examined for anti-DNA (single-stranded chain: ss, double stranded chain: ds) antibody titer in serum. Further, urine was collected and measured for urine protein.
(§2) The medium was administered into the control group.

The test system of experiment [8] is anti-rabbit γ-globulin IgG2a antibody titer. Put plainly: Rat model producing antibody (anti-rabbit γ-globulin antibody titer in serum, ELISA). The following applies: dose 0.3 mg/kg oral once every day for 14 days; 14th day after immunization. The class given is in vivo, Sprague-Dawley strain rats. As for the experimental part:
Sprague-Dawley strain rats were immunized by subcutaneously administering rabbit γ-globulin in a dose of 4 mg/rat along with Freund's complete adjuvant into the bottoms of their both hind legs. On the 14th day after the rats were immunized, blood was collected from their tail veins and examined for anti-rabbit γ-globulin antibody titer in serum by the ELISA method.
The test compounds A, B, C and D were suspended respectively in 0.5% aqueous methyl cellulose solution and orally administered once every day for 14 days from the day on which the animals were immunized with rabbit γ-globulin. The medium was administered into the control group.
(ELISA stands for enzyme-linked immunosorbent assay.)

The test system of experiment [9] is anti-ds DNA antibody. Nature of the experiment: Mouse model with spontaneous onset of SLE: production of anti-ds DNA antibody. It is filed as in vivo, female (NZB×NZW) F1 mice. As for the experimental part: as §1, §2
Experiment [10] has as its system albuminuria in (NZB×NZW)F1 mice. Nature of the experiment: Mouse model with spontaneous onset of SLE: urine protein / onset of albuminuria. The class given is in vivo, female (NZB×NZW) F1 mice. The following applies: for Number of animals with Concentration of Urine Protein (mg/ml) <0.3 / Number of animals with Concentration of Urine Protein (mg/ml) >0.3 / Number of animals with Concentration of Urine Protein (mg/ml) >1 / Number of animals with Concentration of Urine Protein (mg/ml) >3 / Number of animals with Concentration of Urine Protein (mg/ml) >10: after 18 weeks of administration (34-week-old), 8 animals.
Source text: as §1
The test compounds A, B and D were suspended in 0.5% aqueous methyl cellulose solution and orally administered daily once into the animals for 6 days/week for 18 weeks. The medium was administered into the control group.
The effect of each compound on the onset of albuminuria after 18 weeks of administration (in 34-week-old animals) is shown in Table 2.

Experiment [11] concerns accelerated Masugi nephritis. Put plainly: Rat model with accelerated Masugi nephritis (proteins excreted in urine for 24 hours). It is filed as in vivo, Sprague-Dawley strain rats. The following applies: dose 0.3 mg/kg, oral once every day; compared with the control group; 0.3 mg/kg. As for the experimental part:
Sprague-Dawley strain rats were immunized by subcutaneously administering rabbit γ-globulin in a dose of 4 mg/rat along with Freund's complete adjuvant into the bottoms of their both hind legs. On the 5th day after the rats were immunized, 1 ml of anti-rat glomerular basement membrane rabbit serum diluted 6- or 8-fold was administered via tail veins into the animals. On the 8th day, the rats were forced to be orally administered 8 ml sterilized water and then placed in a metabolism cage, and their urine was collected for 24 hours during which the animals were allowed neither food nor water. As the indicator of the model with accelerated Masugi nephritis, the amount of proteins excreted in urine for 24 hours was used.
as §2

Experiment [12] relates to anti-dinitrophenyl (DNP) IgG2a antibody titer. Put plainly: Mouse model producing antibody (anti-DNP IgG2a antibody titer in serum, ELISA). The class given is in vivo, BALB/c mice. The following applies: dose 0.1 mg/kg oral once every day for 10 days; 10th day after immunization. As for the experimental part:
BALB/c mice were immunized by administering dinitrophenylated keyhole limpet hemocyanin (DNP-KLH) as antigen intraperitoneally into them in a dose of 100 μg/mouse along with Freund's complete adjuvant. On the 10th day after the day on which the mice were immunized, blood was collected from the orbital venous plexus of the animals under anesthesia with ether and examined for anti-dintrophenyl (DNP) IgG2a antibody titer in serum by the ELISA method.
The test compounds B, E, F, G and H were suspended in 0.5% aqueous methyl cellulose solution and orally administered into the animals once every day for 10 days from the day when the animals were immunized with DNP-KLH. The medium was administered into the control group.

Experiment [13] concerns mouse B lymphocytes. The following applies: adding RARα antagonist; Apfel 1992; cited from earlier work.
[14] abbreviates: dose 0.03 mg/kg, after 18 weeks of administration.

In the case of `CC1=C(/C=C/C(C)=C/C=C/C(C)=C/C(=O)Nc2ccc(O)cc2)C(C)(C)CCC1`, the “neural symptoms of mouse allergic cerebrospinal meningitis” value in [1] is listed as “ameliorated”.
As for `CC1=C(/C=C/C(C)=C/C=C/C(C)=C\C(=O)O)C(C)(C)CCC1` [13-cis-retinoic acid], the “neural symptoms of mouse allergic cerebrospinal meningitis” value in experiment [1] is “ameliorated”. Moreover, the “secondary inflammations in rat adjuvant arthritis” value in experiment [2] is given as “significantly suppressed”.
Take `CC1=C(/C=C/C(C)=C/C=C/C(C)=C/C(=O)O)C(C)(C)CCC1` [All-trans retinoic acid, all-trans-retinoic acid]: the “polyclonal division of mouse B lymphocytes” value in experiment [3] is recorded as “inhibits”. For the same compound, the “in vitro production of antibody in mice (in words)” value in [4] (0.1 and 1 nM all-trans-retinoic acid) is “inhibited”. In addition, the “Total IgG” value in experiment [4] (all-trans retinoic acid 0.1 nM with Ro-41-5253 20 nM) amounted to 9.8 ng/mL; in experiment [4] (all-trans retinoic acid 0.1 nM with Ro-41-5253 200 nM), 26.4 ng/mL; in [4] (all-trans retinoic acid 0.1 nM with Ro-41-5253 2000 nM) it was 23.4 ng/mL; in [4] (all-trans retinoic acid 0.1 nM, Ro-41-5253 0 nM), 11.3 ng/mL; in experiment [4] (all-trans retinoic acid 1 nM with Ro-41-5253 20 nM), 6.4 ng/mL; in experiment [4] (all-trans retinoic acid 1 nM with Ro-41-5253 200 nM), 7.2 ng/mL. Moreover, the “Total IgG” value in [4] (all-trans retinoic acid 1 nM with Ro-41-5253 2000 nM) is 21.5 ng/mL; in [4] (all-trans retinoic acid 1 nM, Ro-41-5253 0 nM), 7.3 ng/mL. The “polyclonal division of human B lymphocytes” value in experiment [5] is “inhibits”.
In the case of `CC1(C)CCC(C)(C)c2cc(NC(=O)c3ccc(C(=O)O)cc3)ccc21` [Am80], the “production of anti-collagen antibody titer in blood” value in [6] is “strongly inhibited”.
On to `Cc1ccc(C)c2oc(-c3ccc(-c4ccc(C(=O)O)cc4)[nH]3)cc12` [Compound A, 4-{2-[5-(4,7-dimethylbenzofuran-2-yl)pyrrolyl]}benzoic acid], for which the “inhibition of production of anti-ss DNA antibody (in words)” value in [7] was “significant inhibition”. Also, the “effect on anti-rabbit γ-globulin IgG2a antibody titer” value in experiment [8] is reported as “showed a tendency to inhibit”. Besides, the “inhibition of production of anti-ds DNA antibody (in words)” value in experiment [9] (0.03 mg/kg oral, after 16 weeks of administration) was “significant inhibition”. In addition, the “onset of albuminuria (in words)” value in [10] (setting [14]) is given as “inhibited”. For the same compound, in experiment [10] (dose 0.03 mg/kg), the “Number of animals with Concentration of Urine Protein (mg/ml) <0.3” value (“Number of animals … (mg/ml) <0.3” for short) is reported as 6, the “Number of animals with Concentration of Urine Protein (mg/ml) >0.3” value (“Number of animals … (mg/ml) >0.3” for short) is 0, the “Number of animals with Concentration of Urine Protein (mg/ml) >1” value turned out to be 1 and the “Number of animals with Concentration of Urine Protein (mg/ml) >3” value (“Number of animals … (mg/ml) >3” for short) is given as 1. In [10] (dose 0.03 mg/kg), the “Number of animals with Concentration of Urine Protein (mg/ml) >10” value (shortened to “Number of animals … (mg/ml) >10”) is 0. In [11], the “Degree of Inhibition of Albuminuria (%)” value was 69.2%.
As for `O=C(O)c1ccc(-c2ccc(-c3cc4c(C(F)(F)F)ccc(F)c4o3)[nH]2)cc1` [Compound B, 4-{2-[5-(7-fluoro-4-trifluoromethylbenzofuran-2-yl)pyrrolyl]}benzoic acid], in experiment [7], the “inhibition of production of anti-ss DNA antibody (in words)” value is on record as “significant inhibition”. In addition, in [8], the “effect on anti-rabbit γ-globulin IgG2a antibody titer” value is listed as “inhibited significantly”. The “effect on anti-DNP IgG2a” value in experiment [12] is on record as “significantly inhibited”. For the same compound, the “onset of albuminuria (in words)” value in experiment [10] (setting [14]) is listed as “complete inhibition”. In experiment [10] (dose 0.03 mg/kg), the “Number of animals … (mg/ml) <0.3” value stood at 8, the “Number of animals … (mg/ml) >0.3” value was 0, the “Number of animals with Concentration of Urine Protein (mg/ml) >1” value is on record as 0 and the “Number of animals … (mg/ml) >3” value is on record as 0. In addition, the “Number of animals … (mg/ml) >10” value in [10] (dose 0.03 mg/kg) is on record as 0. Further, the “Degree of Inhibition of Albuminuria (%)” value in [11] is reported as 90.7%.
Regarding `CCCCCCCOc1cc2c(cc1/C(C)=C/c1ccc(C(=O)O)cc1)C(C)(C)CCS2(=O)=O` [Ro-41-5253], the “Total IgG” value in experiment [4] (Ro-41-5253 20 nM, all-trans retinoic acid 0 nM) is 29.2 ng/mL; in experiment [4] (Ro-41-5253 200 nM, all-trans retinoic acid 0 nM) it was 30.2 ng/mL; in [4] (Ro-41-5253 2000 nM, all-trans retinoic acid 0 nM) it was 18.0 ng/mL. Also, in experiment [4] (adding 200 nM and 2000 nM Ro-41-5253), the “recovery of the inhibitory action of all-trans-retinoic acid on antibody production (in words)” value was “completely recovered”. Also, the “recovery of the inhibitory action of retinoic acid on differentiation of mouse B lymphocytes” value in experiment [13] is listed as “recovered almost perfectly”.
cyclosporin A [reference compound]: the “inhibition of production of anti-ss DNA antibody” value in experiment [7] (50 mg/kg, examined in the same manner, significant) is listed as “about 85%”. The “inhibition of production of anti-ds DNA antibody (in words)” value in experiment [9] (50 mg/kg, examined in the same manner) is recorded as “did not inhibit”. In addition, in experiment [10] (dose 50 mg/kg), the “Number of animals … (mg/ml) <0.3” value was determined as 5, the “Number of animals … (mg/ml) >0.3” value is 1, the “Number of animals with Concentration of Urine Protein (mg/ml) >1” value stood at 2 and the “Number of animals … (mg/ml) >3” value came to 0. Moreover, in experiment [10] (dose 50 mg/kg), the “Number of animals … (mg/ml) >10” value was found to be 0. Besides, in experiment [10] (dose 50 mg/kg, not statistically significant), the “onset of albuminuria (in words)” value was “showed inhibition”.
